Data reported in ChEMBL document CHEMBL1124561, “Synthesis of acyclonucleoside hydroxamic acids as inhibitors of ribonucleotide reductase” (J Med Chem, 1989).
Values joined by “and” are separate entries in the source; they are usually repeats but may differ in a detail not shown here. Equal values may be shown once.

Assays:
HeLa [1] = experiment: Percent inhibition of growth of human cervical carcinoma (HeLa) cells in culture at 50 micro g/mL of the compound; type: functional
[2] = Inhibition against cytidine diphosphate reductase activity in calf thymus; type: tissue-based, Bos taurus
HeLa [3] = experiment: Percent inhibition of growth of human cervical carcinoma (HeLa) cells in culture at 25 micro g/mL of the compound; type: functional
HeLa [4] = experiment: Percent inhibition of growth of human cervical carcinoma (HeLa) cells in culture at 10 micro g/mL of the compound; type: functional
HeLa [5] = experiment: Percent inhibition of growth of human cervical carcinoma (HeLa) cells in culture at 5 micro g/mL of the compound; type: functional
HeLa [6] = experiment: Percent inhibition of growth of human cervical carcinoma (HeLa) cells in culture at 2.5 micro g/mL of the compound; type: functional
HeLa [7] = experiment: Percent inhibition of growth of human cervical carcinoma (HeLa) cells in culture at 200 micro g/mL of the compound; type: functional
HeLa [8] = experiment: Percent inhibition of growth of human cervical carcinoma (HeLa) cells in culture at 100 micro g/mL of the compound; type: functional
HeLa [9] = experiment: Percent inhibition of growth of human cervical carcinoma (HeLa) cells in culture at 0.1 micro g/mL of the compound; type: functional
HeLa [10] = experiment: Percent inhibition of growth of human cervical carcinoma (HeLa) cells in culture at 1 micro g/mL of the compound; type: functional

SMILES	Inhibition (HeLa [1]) [%]	IC50 [2] [µM]	Inhibition (HeLa [3]) [%]	Inhibition (HeLa [4])	Inhibition (HeLa [5]) [%]	Inhibition (HeLa [6]) [%]	Inhibition (HeLa [7]) [%]	Inhibition (HeLa [8]) [%]	Inhibition (HeLa [9]) [%]	Inhibition (HeLa [10]) [%]
O=C(NO)C(OCCO)n1cc(F)c(=O)[nH]c1=O (centres undefined)	80	1400	75	66%	40	16.5	–	–	–	–
O=C(NO)C(OCCO)n1ccc(=O)[nH]c1=O (centres undefined)	13	2200	19	–	–	–	97	47	–	–
Nc1ccn(C(OCCO)C(=O)NO)c(=O)n1 (centres undefined)	–	4900	–	–	–	–	0	–	–	–
O=c1[nH]cc(F)c(=O)[nH]1 [FLUOROURACIL]	90	–	77	63.5% and 70%	34.3	–	–	–	19	55
NC(=O)NO [HYDROXYUREA]	90	500	77	63.5%	34.3	–	–	–	–	–
